The values below come from US20240009651A1, “PRE-COATINGS FOR BIOCOMPATIBLE SOLID PHASE MICROEXTRACTION DEVICES” (SIGMA-ALDRICH CO. LLC, priority 2020, published 2024).

Where only a bound is given, the exact number is not on record here.

For data set [1] the following is noted: cited from earlier work; for Physiological Charge: physiological pH.
The subject of another data set is Human plasma. As to the kind of experiment: in vitro. On the procedure:
(§1) Protein Binding by BioSPME was studied. A 96-pin device was prepared with an […] pre-coating and PAN/C18 BioSPME coating. Human plasma and buffer were spiked at a therapeutically relevant concentration and incubated for one hour at 37° C. while shaking at 300 rpm. After the incubation, 200 μL plasma and buffer were loaded into separate columns on to the extraction well plate (n=8). The determination of the protein binding was determined by automated robotic method using the BioSPME C18 96-pin tool. Briefly, the pin tool is conditioned for twenty minutes static in isopropanol, then it is transferred into a new well plate for 10 seconds in water (wash step). This is followed by the extraction step. The pin tool is transferred into the preloaded extraction plate described earlier. Here, the pin tool extracts the analytes while shaking at 1200-1250 rpm at 37° C. for 15 minutes. The pin tools return to the water solution for a 60 seconds wash and finally transferred into a desorption plate. The desorption solution is a 80:20 methanol:water and desorbs for 20 minutes under static conditions. Samples were analyzed using methods described in Tables 5 and 6.
(§2) The extraction plates used in this study included both plastic and glass-coated plates. The choice of the plate depended on the compound properties and how well the compound behaved in buffer solution.
(§3) Determination of % Free Fraction (Fu) by BioSPME
(§4) BioSPME method determines the free concentration of analyte in plasma by comparing it with the extraction of the analyte from buffer samples where 100% of the analyte is considered to be free of protein biding.
(§5) The percent free or percent unbound is determined in Eq. 1:
(§6) where concentration free represents the unbound concentration of the analyte in the matrix in this case plasma, and concentration total represents the total concentration of analyte. The amount extracted is independent of units and can be applied using preferred quantities (e.g. nanograms or moles) Mfree, and extraction volume of plasma, Vplasma. The concentration of analyte in the desorption solution is quantified by an external calibration curve, and if the desorption volume is equal to the plasma and buffer extraction volumes, the concentration from desorption will be equal to the extracted concentration as shown in Eq 2.
(§7) The bound fraction, FB, can be determined from the extracted concentrations as shown in Eq 6.
(§8) In cases where depletion of compounds from plasma was pronounced upon BioSPME extraction (extraction exceeded 5% of total spiked analyte), a correction to the calculated Bound Fraction was required as described below:
(§9) where B and P, represent the respective amounts extracted from buffer, B, and plasma, P. B^0 represents the concentration the samples were spiked originally.

The next data set is described as follows: in vitro. The following applies: human. The protocol:
as §1, §2, §3, §4, §5, §6, §7, §8, §9

Data set [2] can be described thus: Non-specific binding to plastic extraction plates. It counts as in vitro ADME. The following applies: plastic versus glass-coated 96-well extraction plates, buffer solution.
Text: as §2

Setting [3] is: human plasma, spiked 100 ng/mL, 200 μL sample, 37° C., n = 8.

As for `O=C1CC2(CCCC2)CC(=O)N1CCCCN1CCN(c2ncccn2)CC1` [Buspirone], the pKa in data set [1] is 4.12.

Regarding `NC(=O)N1c2ccccc2C=Cc2ccccc21` [Carbamazepine], in the data set on Human plasma (15 min, 100 ng/mL), the “Ave. Buffer Extracted” value is 34.7 ng/mL. Moreover, the “Ave. Plasma Extracted” value in the data set with Human plasma (human, 15 min, 100 ng/mL) is recorded as 8.2 ng/mL. In the data set on Human plasma (human, 1 h, 100 ng/mL), the “Ave. FB(%) (bound fraction)” value stood at 76.4%. In addition, the fraction unbound at 1 h, 100 ng/mL in “in vitro” (plasma) stood at 0.236. Further, in data set [1], the “Physiological Charge” value is 0.

Turning to `CC[C@H]1OC(=O)[C@H](C)[C@@H](O[C@H]2C[C@@](C)(OC)[C@@H](O)[C@H](C)O2)[C@H](C)[C@@H](O[C@@H]2O[C@H](C)C[C@H](N(C)C)[C@H]2O)[C@](C)(O)C[C@@H](C)C(=O)[C@H](C)[C@@H](O)[C@]1(C)O` [Erythromycin], the “Ave. Buffer Extracted” value in the data set on Human plasma (15 min, 100 ng/mL) is reported as 35.0 ng/mL. The “Ave. Plasma Extracted” value in the data set on Human plasma (human, 15 min, 100 ng/mL) amounted to 6.5 ng/mL. In the data set on Human plasma (human, 1 h, 100 ng/mL), the “Ave. FB(%) (bound fraction)” value was 81.8%. For the same compound, the fraction unbound at 1 h, 100 ng/mL in “in vitro” (plasma) is 0.182.

On to `CN(C)CCCN1c2ccccc2CCc2ccccc21` [Imipramine], for which the “non-specific binding to plastic” value in data set [2] is given as “exhibit non-specific biding to plastic”. Further, the “Ave. Buffer Extracted” value in the data set with Human plasma (15 min, 100 ng/mL) is 65.4 ng/mL. In the data set on Human plasma (setting [3]), the “Ave. FB(%) (bound fraction)” value is 92.6%. The “Ave. Plasma Extracted” value in the data set with Human plasma (human, 15 min, 100 ng/mL) came to 12.2 ng/mL. The compound also registered a fraction unbound at 1 h, 100 ng/mL in the data set “in vitro” (human plasma) of 0.074. In addition, the “Physiological Charge” value in data set [1] was 1.

`CC(=O)N1CCN(c2ccc(OCC3COC(Cn4ccnc4)(c4ccc(Cl)cc4Cl)O3)cc2)CC1` (centres unmarked) [Ketoconazole]: in data set [2], the “non-specific binding to plastic” value is given as “exhibit non-specific biding to plastic”. Besides, in the data set with Human plasma (15 min, 500 ng/mL), the “Ave. Buffer Extracted” value worked out at 282.4 ng/mL. Besides, in the data set on Human plasma (human plasma, spiked 500 ng/mL, 200 μL sample, 37° C., n = 8), the “Ave. FB(%) (bound fraction)” value is 96.8%. Further, in the data set with Human plasma (human, 15 min, 500 ng/mL), the “Ave. Plasma Extracted” value came to 20.0 ng/mL. The compound further showed a fraction unbound at 1 h, 500 ng/mL in “in vitro” (human plasma) of 0.032. Also, in data set [1], the pKa is reported as 6.75 and the “Physiological Charge” value was 0.

Turning to `CCn1cc(C(=O)O)c(=O)c2ccc(C)nc21` [Nalidixic Acid], the “Ave. Buffer Extracted” value with Human plasma (15 min, 2000 ng/mL) was 16.35 ng/mL. Besides, the “Ave. Plasma Extracted” value with Human plasma (human, 15 min, 2000 ng/mL) is 0.5 ng/mL. In the data set on Human plasma (human, 1 h, 2000 ng/mL), the “Ave. FB(%) (bound fraction)” value stood at 97.0%. The fraction unbound at 1 h, 2000 ng/mL in the data set “in vitro” (plasma) came to 0.03. Besides, the “Log P” value in data set [1] is reported as 1.59.

For the compound `CC(C)NCC(O)COc1cccc2ccccc12` (centres unmarked) [Propranolol], in the data set on Human plasma (15 min, 100 ng/mL), the “Ave. Buffer Extracted” value is reported as 18.3 ng/mL. In the data set on Human plasma (human, 15 min, 100 ng/mL), the “Ave. Plasma Extracted” value stood at 1.7 ng/mL. In the data set on Human plasma (human, 1 h, 100 ng/mL), the “Ave. FB(%) (bound fraction)” value turned out to be 90.5%. In the data set “in vitro” (plasma), this compound returned a fraction unbound at 1 h, 100 ng/mL of 0.095. Further, in data set [1], the “Physiological Charge” value is reported as 1.

Take `CC(=O)CC(c1ccccc1)c1c(O)c2ccccc2oc1=O` (centres unmarked) [Warfarin]: the “Ave. Buffer Extracted” value in the data set with Human plasma (15 min, 2500 ng/mL) is reported as 10.0 ng/mL. Also, the “Ave. Plasma Extracted” value in the data set on Human plasma (human, 15 min, 2500 ng/mL) was less than 0.1 ng/mL. Also, the “Ave. FB(%) (bound fraction)” value in the data set with Human plasma (human, 1 h, 2500 ng/mL) worked out at 99.8%. The compound further returned a fraction unbound at 1 h, 2500 ng/mL in “in vitro” (plasma) of 0.002.

Turning to `Cc1ccc(-c2nc3ccc(C)cn3c2CC(=O)N(C)C)cc1` [Zolpidem], in the data set with Human plasma (buffer, spiked 100 ng/mL, 200 μL sample, n = 8), the “Ave. Buffer Extracted” value turned out to be 68.4 ng/mL. Moreover, the “Ave. FB(%) (bound fraction)” value in the data set with Human plasma (setting [3]) is 96.9%. For the same compound, the “Ave. Plasma Extracted” value in the data set with Human plasma (human plasma, spiked 100 ng/mL, 200 μL sample, n = 8) is 2.1 ng/mL. Further, the fraction unbound at 1 h, 100 ng/mL in “in vitro” (plasma) is 0.031. The “Physiological Charge” value in data set [1] is recorded as 0.

For `C[C@]12C=CC(=O)C=C1CC[C@@H]1[C@@H]2[C@@H](O)C[C@@]2(C)[C@H]1CC[C@]2(O)C(=O)CO` [prednisolone], the “Ave. Buffer Extracted” value in the data set with Human plasma (15 min, 100 ng/mL) came to 62.1 ng/mL. Further, in the data set on Human plasma (human, 15 min, 100 ng/mL), the “Ave. Plasma Extracted” value was 13.5 ng/mL. Moreover, the “Ave. FB(%) (bound fraction)” value with Human plasma (human, 1 h, 100 ng/mL) is recorded as 78.2%. In “in vitro” (plasma), this compound showed a fraction unbound at 1 h, 100 ng/mL of 0.218. Also, the “Physiological Charge” value in data set [1] is 0.
